Assays:
[1] = test system: primary rodent pancreatic islets of Langerhans; assay: GDIS assay in primary rodent pancreatic islets; format: cell-based; settings: 3.0 uM with rat islets and 11.2 mM glucose; compared to 11.2 mM glucose; 90 min; P<0.05
Excerpt: Because activation of GPR40 is known to result in insulin secretion, which is dependent on high glucose concentrations, two separate assay systems (an insulinoma cell line and primary rodent islets) are developed to further characterize compounds that are known to increase intracellular calcium in the GPR40 primary assay discussed above.
GDIS assays using primary rodent pancreatic islets of Langerhans are also used to characterize the exemplified compound. Pancreatic islets are isolated from male SD (Sprague Dawley) rats by collagenase digestion and Histopaque density gradient separation. The islets are cultured overnight in RPMI-1640 medium with GlutaMAXn (stabilized, dipeptide form of L-glutamine (Invitrogen catalog #61870-010)) to facilitate recovery from the isolation process. Insulin secretion is determined by a 90 minute incubation in EBSS (Earle's Balances Salt Solution) buffer in a 48-well plate. Briefly, islets are first preincubated in EBSS with 2.8 mM glucose for 30 min, and are then transferred to a 48-well plate (four islets/well) containing 150 μl 2.8 mM glucose, and incubated with 150 μl of EBSS with 2.8 or 11.2 mM glucose in the presence or absence of test compound for 90 minutes. The buffer is removed from the wells at the end of the incubation, and assayed for insulin levels using the Rat Insulin ELISA kit (Mercodia). […]

Gal4 PPARα = target: T1, Gal4 PPARα (Homo sapiens, UniProt Q07869); assay: Gal4 PPARα reporter functional assay in CV1 cells; format: cell-based; settings: examined up to 10 μM; luciferase reporter; 24 hours
T1 construct: expressed in transfected cells; host or cells: CV1 (African green monkey kidney)
T1 sequence (Q07869 239-466 limits assumed): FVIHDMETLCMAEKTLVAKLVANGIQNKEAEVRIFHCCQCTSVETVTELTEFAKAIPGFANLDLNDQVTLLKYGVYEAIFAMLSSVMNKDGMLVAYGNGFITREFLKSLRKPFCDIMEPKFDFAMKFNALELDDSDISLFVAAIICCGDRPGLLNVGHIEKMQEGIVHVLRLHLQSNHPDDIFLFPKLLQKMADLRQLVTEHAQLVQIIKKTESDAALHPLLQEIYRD
Excerpt: Gal4 PPARα, Gal4 PPARδ, and PPARγ reporter functional assays are also used to monitor the selectivity of the exemplified compound. CV1 cells, which are derived from the renal tissue of an African green monkey, are transfected with various receptor and reporter plasmids using Fugene. For the Gal4 PPARα and PPARδ assays, a reporter plasmid containing five tandem copies of the yeast transcription protein Gal4 response element, cloned upstream of a firefly luciferase gene driven by the major late promoter of adenovirus, is transfected together with a Simian Virus 40 (SV40) driven plasmid constitutively expressing a hybrid protein containing the Gal4 DNA binding domain (DBD), and either the PPARα or PPARδ ligand binding. For the PPARγ assay, plasmids encoding PPARγ and RXRα, both driven by a cytomegalovirus (CMV) promoter are transfected together with a plasmid containing luciferase reporter cDNA driven by the TK promoter and a receptor response element (2×PPRE). Cells are transfected in T225 cm^2 cell culture flasks in DMEM media with 5% charcoal-stripped FBS. […] After 24 hours incubation with the compound, cells are lysed and luciferase activity is determined as a measure of receptor activation by luminescence. […] The maximum percent stimulation is determined versus maximum stimulation obtained with 10 μM of an appropriate PPAR agonist reference compound. […]

CC#C[C@@H](CC(=O)O)c1ccc(OCc2ccc(CN3CCCc4cccc(OC)c43)s2)cc1 [Example 1, (3S)-3-[4-[[5-[(8-Methoxy-3,4-dihydro-2H-quinolin-1-yl)methyl]-2-thienyl]methoxy]phenyl]hex-4-ynoic acid]
increase in insulin [1]: 2.1 fold
functional activation of PPARα (Gal4 PPARα): No functional activation
